Data from US20220395003A1, “Methods for Use in Food Processing and Preservation” (priority 2019, published 2022).

What was measured:
[1] = tested on: microbial growth on the surface of beef carcasses; assay: Microbiological analysis of beef carcass surface after treatment (Example 1)
Method: (§1) A 0.3% aqueous solution of chitosan formed as described above having 0.01% sodium sulfite and 0.1% acetic acid was poured into a commercial dry vapor steam cleaning unit and allowed to equilibrate for about 15 minutes. The steam was applied to a beef carcass by the method of […] as disclosed in U.S. Pat. No. 9,149,036 which is incorporated herein by reference in its entirety. For comparison, a beef carcass was sprayed with an aqueous solution of about 3% acetic acid by standard methods known in the art. Prior to applying the chitosan steam or the aqueous acetic acid solution, the beef carcasses were washed thoroughly with hot water. The beef carcasses were maintained at 4 degrees centigrade.

[2] = tested on: microbial growth on the surface of beef carcass; assay: Microbiological analysis of low and high surface areas of beef carcass (Example 2)
Method: as §1, with “centigrade. Microbiological analysis was performed on the surface of the carcasses at pretreatment and at 1, 24, and 72 hours after treatment. […] The study in Example 1 was repeated, applying the previously-described 0.3% chitosan, acetic acid, and sodium sulfite solution on a low surface area and a high surface area of a beef carcass.” for “centigrade.”

In the case of `CC(=O)O` [Water wash + acetic acid, acetic acid], the microbial growth ([1]; Flank, 0 h (pretreatment), 4 degrees centigrade) is reported as 2.60 log colony forming units, the microbial growth ([1]; Flank, 1 h after treatment) is reported as 2.10 log colony forming units and the microbial growth ([1]; Flank, 24 h after treatment) is reported as 2.10 log colony forming units. For the same molecule, the microbial growth ([1]; Flank, 72 h after treatment) was 2.00 log colony forming units, the microbial growth ([1]; Loin, 0 h (pretreatment), 4 degrees centigrade) was 3.70 log colony forming units and the microbial growth ([1]; Loin, 1 h after treatment) was 2.40 log colony forming units. The microbial growth ([1]; Loin, 24 h after treatment) was 1.80 log colony forming units, the microbial growth ([1]; Loin, 72 h after treatment) was 2.00 log colony forming units and the microbial growth ([2]; High (A) surface, 1 h) was 1.59 log colony forming units. For the same molecule, the microbial growth ([2]; High (A) surface, 48 h) was 1.35 log colony forming units, the microbial growth ([2]; High (A) surface, 168 h) was 1.49 log colony forming units and the microbial growth ([2]; High (B) surface, 1 h) was 2.03 log colony forming units. The microbial growth ([2]; High (B) surface, 48 h) was 1.80 log colony forming units, the microbial growth ([2]; High (B) surface, 168 h) was 1.77 log colony forming units and the microbial growth ([2]; High (C) surface, 1 h) was 1.88 log colony forming units. It also gave a microbial growth ([2]; High (C) surface, 48 h) of 1.65 log colony forming units, a microbial growth ([2]; High (C) surface, 168 h) of 1.43 log colony forming units and a microbial growth ([2]; Low (A) surface, 1 h) of 1.53 log colony forming units. The microbial growth ([2]; Low (A) surface, 48 h) was 1.09 log colony forming units, the microbial growth ([2]; Low (A) surface, 168 h) was 0.00 log colony forming units and the microbial growth ([2]; Low (B) surface, 1 h) was 1.73 log colony forming units. For the same molecule, the microbial growth ([2]; Low (B) surface, 48 h) was 1.57 log colony forming units, the microbial growth ([2]; Low (B) surface, 168 h) was 1.45 log colony forming units and the microbial growth ([2]; Low (C) surface, 1 h) was 0.43 log colony forming units. It also gave a microbial growth ([2]; Low (C) surface, 48 h) of 0.94 log colony forming units and a microbial growth ([2]; Low (C) surface, 168 h) of 1.35 log colony forming units.
